According to patent US9422350B2, “Target of EGR1 (TOE1) polypeptides for inhibition of HIV” (priority 2010, dated 2016):
Entries after “also recorded” stand apart in the source; their conditions may differ.

Tests used:
[1] = test system: Tat driven HIV LTR expression; assay: Tat-driven HIV LTR (TAR) luciferase reporter assay in transfected HeLa cells; assay type: cell-based; settings: for inhibitory activity of Tat activation of HIV LTR compared with wild-type TOE1: HeLa cells, luciferase, FIG. 7
Experimental: FIG. 3: TOE1 inhibits Tat driven HIV LTR expression. HeLa cells were seeded into 24 wells plates at 30,000 cells/well and then transfected the following day with the indicated constructs at 200 ng total DNA+0.5 μl of FuGENE™ (Roche)/well. 24 hours after transfection the cells were lysed and the luciferase expression was determined by reading Relative Bioluminescent Units (RLU). This graph is representative of multiple experiments performed in triplicates.
FIG. 7: TOE1 processing by caspase-1 enhances its inhibition of HIV LTR transactivation by Tat. (A) HeLa cells were transfected with the indicated constructs, and then luciferase assay was performed as described above. […] All transfection and measurements were performed in triplicate.
FIG. 9: Defining the minimal TOE1 region able to inhibit Tat-induced HIV LTR activation. […] Results are expressed as percentage activation of the HIV LTR referenced to Tat. All transfections and measurements were performed in triplicate, and results are representative of multiple independent experiments.
To test for a potential interaction between TOE1 and Tat, we assessed the effect of TOE1 expression on Tat driven transactivation of the TAR element. We employed a luciferase expression system controlled by the HIV LTR including the TAR sequence.

[2] = test system: Tat-driven HIV LTR activity; assay: Co-culture of transfected 293T cells with HeLa cells carrying HIV LTR reporter and Tat; assay type: cell-based; settings: 293T transfected with construct, co-cultured 24 hours with HeLa (HIV LTR + Tat), FIG. 11
Experimental: FIG. 11. TOE1 can be secreted and inhibits HIV LTR in neighboring cells. HeLa cells were transfected with either HIV LTR alone, or together with Tat as indicated. Separately, 293T cells were transfected with either control empty vector (C), full length TOE1 (TOE1), or a deletion mutant comprising amino acids 283-363 (SEQ ID NO:13) containing the basic region located at 335-348 (283-363). 24 hours following transfection, the transfected 293T cells were placed in co-culture with the transfected HeLa cells to provide the samples. 24 hours after co-culture, samples were assayed for Tat-driven HIV LTR activity.
To determine if TOE1 could be secreted and subsequently taken up by other neighboring cells, we performed co-culture experiments of cells transfected with the HIV LTR reporter and Tat protein in one cell type and either full length TOE1 or the potential protein transduction domain of TOE1 comprising amino acids 283-363 (SEQ ID NO:13) in another cell type. […] Therefore, a minimal domain of TOE1, comprising the basic stretch of amino acids at position 335-347 (SEQ ID NO:15), was able to function as a protein transduction domain as well as an effective inhibitor of Tat transcriptional activation.

[3] = target: T1, caspase-1 (Homo sapiens, UniProt P29466); assay: In vitro digestion of immunoprecipitated TOE1 with recombinant caspase-1, Western blot; assay type: biochemical; settings: caspase-1 incubation 4 hours at 37° C., FIG. 4
T1 construct: purchased Calbiochem
T1 sequence (P29466 120-297 limits assumed): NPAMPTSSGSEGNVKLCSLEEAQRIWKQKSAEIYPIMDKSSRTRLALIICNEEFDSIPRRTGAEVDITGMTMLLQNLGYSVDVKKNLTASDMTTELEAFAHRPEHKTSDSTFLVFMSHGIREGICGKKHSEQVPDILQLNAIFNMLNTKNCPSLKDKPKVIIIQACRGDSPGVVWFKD
Experimental: FIG. 4: TOE1 is a substrate for caspase-1. (A) Endogenously expressed TOE1 was immunoprecipitated from a lysate of Jurkat cells using the rabbit polyclonal α-TOE1 antibody or pre-immune serum (control=C) and ProteinA/Sepharose™ beads. Immunoprecipitates complexed beads were then incubated with 5 units of recombinant caspase-1 (from Calbiochem) or control buffer, as indicated, for 4 hours at 37° C., and then separated on a 12% Acrylamide/SDS gel and transferred on a PVDF membrane. 50 kDa, 40 kDa and 30 kDa fragments are visible after probing the blot with the monoclonal α-TOE1 antibody. (B) Cell lysates from cells transfected with a TOE1 expression construct were subjected to immunoprecipitation with the rabbit α-TOE1 antibody and ProteinA/Sepharose™ beads.
Since, as described earlier, CAF activity is reported to be dependent upon proteolytic activity, we decided to explore the possibility that TOE1 is a protease substrate. […] The software predicts a single cleavage for the tetrapeptide FTAD at position 214-217 of TOE1. We considered this potential cleavage to warrant further study for several reasons. […] Under our experimental conditions we observed processing by casapse-1 generating fragments of 50, 40, and 30 kDa as detected with a monoclonal anti-TOE1 antibody whose target epitope we have mapped to residues 218-282 (FIG. 4A). […]

## TOE1: human TOE1 (target of EGR1) protein, full length, 510 amino acids
[1]; HIV LTR luciferase, no Tat
  effect on the LTR in the absence of Tat: did not have any effect
[1]; TOE1 coexpressed with Tat, HIV LTR incl. TAR luciferase, different experiments (FIG. 3)
  reduction of Tat transactivation potential: 50-80%
[2]
  inhibition of Tat activation of the HIV LTR in neighboring cells: effectively inhibiting

## 335-363 (KRRRRRRREKRKRALLNLPGTQTSGEAKD; K335/D363 Deletion mutant of TOE1)
[1]; transfected deletion mutants, FIG. 9
  inhibition of Tat activation of the HIV LTR by TOE1 deletion mutants: significantly inhibiting

## delN282
[1]
  inhibitory activity of Tat activation of HIV LTR compared with wild-type TOE1: more efficient inhibitor; also recorded: greater inhibition than wild-type TOE1

## D195/282A
[1]
  inhibitory activity of Tat activation of HIV LTR compared with wild-type TOE1: less effective than wild type TOE1; also recorded: significantly less effective

## YVAD-CHO
[3]
  inhibition of TOE1 processing by caspase-1: completely prevents the processing; also recorded: processing was inhibited
